This note sets out measurements from PubChem BioAssay (NCI).

Holding throughout (experiment): DTP human tumour cell line panel, 48 h
Test [1] has as its system 786-0 renal.
For test [2], the system named is BT-549 breast.
The subject of test [3] is HOP-92 NSCLC.
The test system of test [4] is MDA-MB-435.
For test [5], the system named is SF-268 CNS.
The subject of test [6] is SK-MEL-28 melanoma.
For test [7], the system named is SN12C renal.
For test [8], the system named is SW-620 colon.
For test [9], the system named is TK-10 renal.
Test [10] deals with NCI-H460 lung.

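Following 48 hours of exposure in 96-well plates, responses at five concentrations were used to interpolate endpoints linearly. The concentration for 50% growth inhibition is given as GI50. At the TGI there is no net growth.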

What is called TGI is the concentration at which net growth stops. On to `CCOC(=O)C1c2[nH]c3ccccc3c2CCN1C(=O)c1ccco1` (centres undefined), for which the TGI in test [1], in test [2], in test [3], in test [4], in test [5] and in [6] was above 10 µM each time. The total growth inhibition concentration (TGI) in test [7], in test [8] and in [9] was above 10 µM in each case.

As usually defined, the GI50 is the concentration giving 50% growth inhibition. Turning to `COc1ccc(Nc2c3c4c(cccc4[nH]c2=O)C(=O)c2ccccc2-3)cc1`, the GI50 in test [1] is 0.0334 µM; in test [2], 0.0268 µM; in test [3], 0.332 µM; in [4] it was 0.0335 µM; in test [10] it was below 0.01 µM; in [5] it was 0.0373 µM. The GI50 was 11 µM in test [6], 0.0544 µM in test [7], below 0.0203 µM in test [8] and below 0.0225 µM in test [9]. Further, the TGI is 19.6 µM in test [1]; 0.0708 µM in [2]; above 100 µM in test [3]; above 100 µM in test [4]; 10.1 µM in test [10]; 18.6 µM in [5]. For the same molecule, the TGI in [6] is above 100 µM; in [7], above 100 µM; in [8], above 100 µM; in test [9] it was 21.3 µM.

For the molecule `COc1ccc(-c2cc(-c3ccc(O)cc3)nc3nc(=S)[nH]c(N)c23)cc1`, the GI50 was 22.8 µM in test [1]; 12.4 µM in [2]; 5.15 µM in test [3]; 17.3 µM in [4]; 15.9 µM in [10]; 23.4 µM in [5]. The GI50 in test [6] is 66.8 µM; in test [7] it was 18.5 µM; in test [8], 16 µM; in test [9] it was 32.2 µM. Further, the TGI in [1] was 56.6 µM; in [2], 32.7 µM; in test [3], 36.4 µM; in test [4] it was 41.4 µM; in [10], 36.9 µM; in [5], 79.2 µM. For the same molecule, the TGI was above 100 µM in test [6], 45.1 µM in test [7], 33.3 µM in test [8] and 92.9 µM in [9].

Turning to `C[As](C)Sc1ccnc(S[As](C)C)n1`, the GI50 in test [1] is 5.36 µM; in [2], 3.78 µM; in [3], 0.774 µM; in test [4], 1.8 µM; in [10], 19.1 µM; in test [5], 7.44 µM. For the same molecule, the GI50 in test [6] is 2.67 µM; in [7], 3.41 µM; in test [8], 1.4 µM; in test [9], 2.64 µM. The TGI was above 40.5 µM in [1]; 18.2 µM in test [2]; 5 µM in test [3]; above 27.9 µM in test [4]; above 58.6 µM in test [10]; above 39.7 µM in [5]. Moreover, the TGI in test [6] is 19.7 µM; in [7] it was 15.8 µM; in test [8] it was 19.5 µM; in [9], 14.3 µM.

Regarding `CC(C)c1ccc2c(N=Nc3ccc(S(N)(=O)=O)cc3)c(O)[nH]c2c1`, the GI50 in test [1] is 12.6 µM; in [2], 8.76 µM; in [3] it was above 15.9 µM; in [4] it was above 23.2 µM; in [10], 5.72 µM; in [5], 7.52 µM. Besides, the GI50 is above 25 µM in [6], above 14.8 µM in test [7], above 25 µM in [8] and above 12.1 µM in test [9]. The TGI in test [1] was above 25 µM; in test [2] it was above 16.4 µM; in [3], above 25 µM; in test [4], above 25 µM; in test [10], above 16.4 µM; in test [5] it was above 20.2 µM. The TGI in test [6] is above 25 µM; in test [7] it was above 25 µM; in test [8] it was above 25 µM; in test [9], above 24 µM.

Take `Nc1ccccc1/C=N\Nc1ccccc1`: the GI50 was 2.69 µM in [1]; 74.1 µM in test [2]; 6.27 µM in test [3]; 4.5 µM in test [4]; 2.35 µM in test [10]; above 100 µM in test [5]. For the same molecule, the GI50 in [6] is above 100 µM; in test [7], above 100 µM; in test [8], 11.5 µM; in test [9], above 100 µM. For the same molecule, the TGI in [1], in test [2], in test [3], in test [4], in [10] and in test [5] was above 100 µM in each case. The TGI in test [6], in test [7], in test [8] and in [9] was above 100 µM throughout.

In the case of `C(=N/Nc1ncnc2nc[nH]c12)/c1ccccn1`, the GI50 in test [1] was 1.65 µM; in test [2], 1.86 µM; in test [3], 3.14 µM; in test [4] it was 1.08 µM; in test [10] it was 3.29 µM; in [5], 0.342 µM. For the same molecule, the GI50 is 1.2 µM in [6], 0.84 µM in test [7], 1.71 µM in test [8] and 0.452 µM in test [9]. The TGI in test [1] was 5.43 µM; in test [2] it was above 100 µM; in test [3], 8.72 µM; in test [4] it was above 100 µM; in [10], above 50.8 µM; in [5], above 23.7 µM. For the same molecule, the TGI in [6] was above 100 µM; in test [7], above 65.1 µM; in [8], above 100 µM; in test [9], above 100 µM.

For `C#CC[C@@H]1C[C@]2(C)[C@H]3CC[C@@H]4[C@H]5[C@H](C(=C)C)CC[C@]5(C(=O)O)CC[C@@]4(C)[C@]3(C)CC[C@H]2C(C)(C)[C@H]1O`, the GI50 is 1.71 µM in test [1]; 2.52 µM in test [2]; 1.7 µM in test [3]; 3.03 µM in test [4]; 1.62 µM in test [10]; 2.81 µM in test [5]. The GI50 in test [6] is 2.75 µM; in [7] it was 2.98 µM; in [8], 1.98 µM; in [9], 1.85 µM. The TGI in [1] is 3.4 µM; in test [2] it was 8.73 µM; in test [3], 4.18 µM; in test [4], 10.8 µM; in [10], 3.18 µM; in test [5] it was 10.1 µM. In addition, the TGI was determined as 7.6 µM in [6], 11.6 µM in [7], 4.28 µM in [8] and 4.44 µM in test [9].
